In brackets after ≈: the same amount, converted by molar mass.
System: E. coli
Test: Erythromycin MIC quoted in legend of growth assay with and without erythromycin
Format: cell-based
Settings: Escherichia coli
Experimental: E. coli MG1655 was used as wild-type. The ALE selected rpoBE564V and rpoBE672K knock in strains were previously constructed by allelic replacement^7. To generate additional variants of […] and 672 positions, MAGE was performed on the wild-type strain by first transformation of recombineering plasmid pKD46^46, then inactivation of mutS with two nonsense mutations at residues 189 and 191 using an oligo (mutS_MUT). […] To perform each cycle of MAGE, the 1-Red system was induced with 0.5%-arabinose 45 minutes prior to generation of electrocompetent cells and oligo. Batch cultures were done in flask with M9 minimal media and 4 g/L of glucose at 37° C. or LB rich media. Glucose limited chemostats were carried out in a Bioflo 110 fermentor (New Brunswick Scientific, NJ). Glucose supplemented M9 was added to the reactor at 0.31 and 0.44 h^−1 dilution rates controlled by a peristaltic pump. Steady state was achieved after 3-5 residence times and was verified by biomass measurements. Phenotypic tests were performed by inoculation of media with an overnight pre-culture of glucose M9 media for all cases. Erythromycin was added to the media to the indicated concentration. The pH of M9 was adjusted to the indicated value with 6M HCl. Different substrates and mixtures were added to M9 to test growth in the indicated conditions. […]

SMILES: CC[C@H]1OC(=O)[C@H](C)[C@@H](O[C@H]2C[C@@](C)(OC)[C@@H](O)[C@H](C)O2)[C@H](C)[C@@H](O[C@@H]2O[C@H](C)C[C@H](N(C)C)[C@H]2O)[C@](C)(O)C[C@@H](C)C(=O)[C@H](C)[C@@H](O)[C@]1(C)O [erythromycin]
- MIC: 512 to 1020 µg/mL (≈ 698 to 1400 µM)

— patent US10174307B2, “Performance enhancing genetic variants of E. coli” (priority 2014, dated 2019)
